Laboratory results taken from patent US7176224B2, “Oxazolyl-aryloxyacetic acid derivatives and their use as PPAR agonists” (Eli Lilly and Company, priority 2000, dated 2007).

Legend:
huPPARγ = experiment: Cotransfection assay in CV-1 cells, luciferase reporter; format: cell-based, human; details: GAL4 chimeric system, relative to agonist reference molecule
Protocol: […] binding (ABCD binding) was carried out using SPA technology with PPAR receptors. […] Cotransfection assays were carried out in CV-1 cells. The reporter plasmid contained an acylCoA oxidase (AOX) PPRE and TK promoter upstream of the luciferase reporter cDNA. Appropriate PPARs and RXRα were constitutively expressed using plasmids containing the CMV promoter. […] In order to eliminate such interference, a GAL4 chimeric system was used in which the DNA binding domain of the transfected PPAR was replaced by that of GAL4, and the GAL4 response element was utilized in place of the AOX PPRE. […] Efficacies were determined by computer fit to a concentration-response curve, or in some cases at a single high concentration of agonist (10 μM). For binding or cotransfection studies with receptors other than PPARs, similar assays were carried out using appropriate ligands, receptors, reporter constructs, etc., for that particular receptor.
These studies were carried out to evaluate the ability of compounds of the invention to bind to and/or activate various nuclear transcription factors, particularly huPPARα (“hu” indicates “human”) and huPPARγ. These studies provide in vitro data concerning efficacy and selectivity of compounds of the invention. Furthermore, binding and cotransfection data for compounds of the invention were compared with corresponding data for marketed compounds that act on either huPPARα or huPPARγ.

db/db mice = experiment: Evaluation of glucose levels in db/db mice; format: in vivo; details: 30 mg/kg oral gavage daily for 7 days; 100% = glucose not differing from lean values
Protocol: Five week old male diabetic (db/db) mice [C57BlKs/j-m +/+ Lepr(db), Jackson Laboratory, Bar Harbor, Me.] or lean littermates (DB/?) were housed 6 per cage (10″20″8″ with aspen chip bedding) with food (Purina 5015) and water available at all times. After an acclimation period of 2 weeks, animals were individually identified by ear notches, weighed, and bled via the tail vein for determination of initial glucose levels. Blood was collected (100 μl) from unfasted animals by wrapping each mouse in a towel, cutting the tip of the tail with a scalpel, and milking blood from the tail into a heparinized capillary tube (Fisher) balanced on the edge of the bench. Sample was discharged into a heparinized microtainer with gel separator (VWR) and retained on ice. Plasma was obtained after centrifugation at 4° C. and glucose measured immediately. Remaining plasma was frozen until the completion of the experiment, when glucose and triglycerides were assayed in all samples. […]
Glucose was measured colorimetrically using commercially purchased reagents (Sigma #315-500). […] The absorbance of the dye produced is linearly related to the analyte in the sample. […] Standards (Sigma #339-11, Sigma #16-11, and Sigma #CC0534 for glucose, triglycerides and total cholesterol, respectively), quality control plasma (Sigma # A2034), and samples (2 or 5 μl/well) were measured in duplicate using 200 μl of reagent. […]

## Cc1oc(-c2cccc(-c3ccc(F)cc3)c2)nc1CCOc1ccc(CC(C)(Oc2ccccc2)C(=O)O)cc1 (centres unmarked) [Example 4, 3-(4-{2-[2-(4′-Fluorobiphenyl-3-yl)-5-methyloxazol-4-yl]ethoxy}phenyl)-2-methyl-2-phenoxypropionic acid]
huPPARγ
  huPPARγ CTF Efficacy: 93%
db/db mice
  Glucose Normalisation: 91%
